Test results as given in paper PMC12274840 (The Journal of Biological Chemistry, 2025).
In brackets after ≈: the same amount, converted by molar mass. Where two headings read alike, the source gives them in different places.

Assays:
Type in all cases: cell-based
[1] = test system: E. coli KA797 cells carrying CTX-M-14 position 105 library
[2] = test system: E. coli KA797 cells carrying pUK21 vector without the β-lactamase gene; assay: microbe, parasite or virus in culture; settings: Escherichia coli; antibiotic alone; pUK21 without β-lactamase gene; read-out: MIC
[3] = test system: E. coli KA797 cells carrying TEM-1 position 105 library; settings: for Fi carbenicillin AVG: average of replicates
[4] = test system: E. coli KA797 cells carrying pUK21 with NmcA (pelB/Sec); assay: microbe, parasite or virus in culture; settings: Escherichia coli, antibiotic alone
[5] = test system: E. coli KA797 cells carrying pUK21 with KPC-2 (Tat); assay: microbe, parasite or virus in culture; settings: Escherichia coli, antibiotic alone
[6] = test system: E. coli KA797 cells carrying pUK21 with BlaC WT (Tat); assay: microbe, parasite or virus in culture; settings: Escherichia coli, antibiotic alone
[7] = test system: E. coli KA797 cells carrying NmcA position 105 library

SMILES: CC1(C)S[C@@H]2[C@H](NC(=O)C(C(=O)O)c3ccccc3)C(=O)N2[C@H]1C(=O)O (stereo partly drawn) [carbenicillin]
- Significance of average fitness ([1]; CTX-M-14 AA 105 Ala): -
- Significance of average fitness ([1]; CTX-M-14 AA 105 Arg): -
- Significance of average fitness ([1]; CTX-M-14 AA 105 Asn): -
- Significance of average fitness ([1]; CTX-M-14 AA 105 Asp): -
- Significance of average fitness ([1]; CTX-M-14 AA 105 Cys): -
- Significance of average fitness ([1]; CTX-M-14 AA 105 Gln): -
- Significance of average fitness ([1]; CTX-M-14 AA 105 Glu): -
- Significance of average fitness ([1]; CTX-M-14 AA 105 Gly): -
- Significance of average fitness ([1]; CTX-M-14 AA 105 His): -
- Significance of average fitness ([1]; CTX-M-14 AA 105 Ile): -
- Significance of average fitness ([1]; CTX-M-14 AA 105 Leu): -
- Significance of average fitness ([1]; CTX-M-14 AA 105 Lys): -
- Significance of average fitness ([1]; CTX-M-14 AA 105 Met): -
- Significance of average fitness ([1]; CTX-M-14 AA 105 Pro): -
- Significance of average fitness ([1]; CTX-M-14 AA 105 Ser): -
- Significance of average fitness ([1]; CTX-M-14 AA 105 Thr): -
- Significance of average fitness ([1]; CTX-M-14 AA 105 Val): -
- WT abs Fi 1 (absolute fitness of wild type, Replicate 1) ([1]; CTX-M-14 WT (Tyr 105)): 0.706
- MIC [2]: 10 µg/mL (≈ 26.4 µM)
- Significance (Average fitnes carbenicillin) ([3]; AA 105 Ala): -
- Fi carbenicillin AVG ([3]; AA 105 Ala): -0.528
- Fi CAR 1 ([3]; AA 105 Ala, replicate 1): -0.503
- Fi CAR 2 ([3]; AA 105 Ala, replicate 2): -0.553
- Significance (Average fitnes carbenicillin) ([3]; AA 105 Arg): -
- Fi carbenicillin AVG ([3]; AA 105 Arg): -0.371
- Fi CAR 1 ([3]; AA 105 Arg, replicate 1): -0.360
- Fi CAR 2 ([3]; AA 105 Arg, replicate 2): -0.382
- Fi carbenicillin AVG ([3]; AA 105 Asn): -0.119
- Fi CAR 1 ([3]; AA 105 Asn, replicate 1): -0.088
- Fi CAR 2 ([3]; AA 105 Asn, replicate 2): -0.150
- Significance (Average fitnes carbenicillin) ([3]; AA 105 Asp): -
- Fi carbenicillin AVG ([3]; AA 105 Asp): -1.040
- Fi CAR 1 ([3]; AA 105 Asp, replicate 1): -1.009
- Fi CAR 2 ([3]; AA 105 Asp, replicate 2): -1.070
- Significance (Average fitnes carbenicillin) ([3]; AA 105 Cys): -
- Fi carbenicillin AVG ([3]; AA 105 Cys): -0.639
- Fi CAR 1 ([3]; AA 105 Cys, replicate 1): -0.611
- Fi CAR 2 ([3]; AA 105 Cys, replicate 2): -0.666
- Significance (Average fitnes carbenicillin) ([3]; AA 105 Gln): -
- Fi carbenicillin AVG ([3]; AA 105 Gln): -0.400
- Fi CAR 1 ([3]; AA 105 Gln, replicate 1): -0.384
- Fi CAR 2 ([3]; AA 105 Gln, replicate 2): -0.417
- Significance (Average fitnes carbenicillin) ([3]; AA 105 Glu): -
- Fi carbenicillin AVG ([3]; AA 105 Glu): -0.893
- Fi CAR 1 ([3]; AA 105 Glu, replicate 1): -0.890
- Fi CAR 2 ([3]; AA 105 Glu, replicate 2): -0.895
- Fi carbenicillin AVG ([3]; AA 105 Gly): -0.181
- Fi CAR 1 ([3]; AA 105 Gly, replicate 1): -0.158
- Fi CAR 2 ([3]; AA 105 Gly, replicate 2): -0.204
- Fi carbenicillin AVG ([3]; AA 105 His): -0.182
- Fi CAR 1 ([3]; AA 105 His, replicate 1): -0.177
- Fi CAR 2 ([3]; AA 105 His, replicate 2): -0.187
- Significance (Average fitnes carbenicillin) ([3]; AA 105 Ile): -
- Fi carbenicillin AVG ([3]; AA 105 Ile): -0.707
- Fi CAR 1 ([3]; AA 105 Ile, replicate 1): -0.683
- Fi CAR 2 ([3]; AA 105 Ile, replicate 2): -0.731
- Significance (Average fitnes carbenicillin) ([3]; AA 105 Leu): -
- Fi carbenicillin AVG ([3]; AA 105 Leu): -0.631
- Fi CAR 1 ([3]; AA 105 Leu, replicate 1): -0.615
- Fi CAR 2 ([3]; AA 105 Leu, replicate 2): -0.647
- Significance (Average fitnes carbenicillin) ([3]; AA 105 Lys): -
- Fi carbenicillin AVG ([3]; AA 105 Lys): -0.496
- Fi CAR 1 ([3]; AA 105 Lys, replicate 1): -0.486
- Fi CAR 2 ([3]; AA 105 Lys, replicate 2): -0.506
- Significance (Average fitnes carbenicillin) ([3]; AA 105 Met): -
- Fi carbenicillin AVG ([3]; AA 105 Met): -0.369
- Fi CAR 1 ([3]; AA 105 Met, replicate 1): -0.357
- Fi CAR 2 ([3]; AA 105 Met, replicate 2): -0.382
- Fi carbenicillin AVG ([3]; AA 105 Phe): -0.152
- Fi CAR 1 ([3]; AA 105 Phe, replicate 1): -0.133
- Fi CAR 2 ([3]; AA 105 Phe, replicate 2): -0.171
- Significance (Average fitnes carbenicillin) ([3]; AA 105 Pro): -
- Fi carbenicillin AVG ([3]; AA 105 Pro): -0.936
- Fi CAR 1 ([3]; AA 105 Pro, replicate 1): -0.929
- Fi CAR 2 ([3]; AA 105 Pro, replicate 2): -0.943
- Significance (Average fitnes carbenicillin) ([3]; AA 105 Ser): -
- Fi carbenicillin AVG ([3]; AA 105 Ser): -0.354
- Fi CAR 1 ([3]; AA 105 Ser, replicate 1): -0.356
- Fi CAR 2 ([3]; AA 105 Ser, replicate 2): -0.352
- Significance (Average fitnes carbenicillin) ([3]; AA 105 Thr): -
- Fi carbenicillin AVG ([3]; AA 105 Thr): -0.562
- Fi CAR 1 ([3]; AA 105 Thr, replicate 1): -0.532
- Fi carbenicillin AVG ([3]; AA 105 Trp): -0.027
- Fi CAR 1 ([3]; AA 105 Trp, replicate 1): -0.012
- Fi CAR 2 ([3]; AA 105 Trp, replicate 2): -0.043
- Fi carbenicillin AVG ([3]; AA 105 Tyr): 0.000
- Fi CAR 1 ([3]; AA 105 Tyr, replicate 1): 0.000
- Fi CAR 2 ([3]; AA 105 Tyr, replicate 2): 0.000
- Significance (Average fitnes carbenicillin) ([3]; AA 105 Val): -
- Fi carbenicillin AVG ([3]; AA 105 Val): -0.544
- Fi CAR 1 ([3]; AA 105 Val, replicate 1): -0.508
- Fi CAR 2 ([3]; AA 105 Val, replicate 2): -0.579
- WT abs Fi 1 ([3]; absolute fitness of TEM-1 WT, carbenicillin, replicate 1): 0.724
- WT abs Fi 2 ([3]; absolute fitness of TEM-1 WT, carbenicillin, replicate 2): 0.359
- MIC [4]: 200 µg/mL (≈ 529 µM)
- MIC [5]: 400 µg/mL (≈ 1060 µM)
- MIC [6]: 800 µg/mL (≈ 2110 µM)
- Fi AVG (average fitness of replicates) ([7]; NmcA AA 105 Ala): -0.798
- Significance of average fitness ([7]; NmcA AA 105 Ala): -
- Fi AVG (average fitness of replicates) ([7]; NmcA AA 105 Arg): -0.438
- Significance of average fitness ([7]; NmcA AA 105 Arg): -
- Fi AVG (average fitness of replicates) ([7]; NmcA AA 105 Asn): -0.329
- Significance of average fitness ([7]; NmcA AA 105 Asn): -
- Fi AVG (average fitness of replicates) ([7]; NmcA AA 105 Asp): -0.908
- Significance of average fitness ([7]; NmcA AA 105 Asp): -
- Fi AVG (average fitness of replicates) ([7]; NmcA AA 105 Cys): -0.727
- Significance of average fitness ([7]; NmcA AA 105 Cys): -
- Fi AVG (average fitness of replicates) ([7]; NmcA AA 105 Gln): -0.466
- Significance of average fitness ([7]; NmcA AA 105 Gln): -
- Fi AVG (average fitness of replicates) ([7]; NmcA AA 105 Glu): -0.772
- Significance of average fitness ([7]; NmcA AA 105 Glu): -
- Fi AVG (average fitness of replicates) ([7]; NmcA AA 105 Gly): -0.274
- Significance of average fitness ([7]; NmcA AA 105 Gly): -
- Fi AVG (average fitness of replicates) ([7]; NmcA AA 105 His): 0.000
- Fi AVG (average fitness of replicates) ([7]; NmcA AA 105 Ile): -0.761
- Significance of average fitness ([7]; NmcA AA 105 Ile): -
- Fi AVG (average fitness of replicates) ([7]; NmcA AA 105 Leu): -0.728
- Significance of average fitness ([7]; NmcA AA 105 Leu): -
- Fi AVG (average fitness of replicates) ([7]; NmcA AA 105 Lys): -0.642
- Significance of average fitness ([7]; NmcA AA 105 Lys): -
- Fi AVG (average fitness of replicates) ([7]; NmcA AA 105 Met): -0.481
- Significance of average fitness ([7]; NmcA AA 105 Met): -
- Fi AVG (average fitness of replicates) ([7]; NmcA AA 105 Phe): -0.458
- Significance of average fitness ([7]; NmcA AA 105 Phe): -
- Fi AVG (average fitness of replicates) ([7]; NmcA AA 105 Pro): -0.671
- Significance of average fitness ([7]; NmcA AA 105 Pro): -
- Fi AVG (average fitness of replicates) ([7]; NmcA AA 105 Ser): -0.589
- Significance of average fitness ([7]; NmcA AA 105 Ser): -
- Fi AVG (average fitness of replicates) ([7]; NmcA AA 105 Thr): -0.842
- Significance of average fitness ([7]; NmcA AA 105 Thr): -
- Fi AVG (average fitness of replicates) ([7]; NmcA AA 105 Trp): -0.118
- Significance of average fitness ([7]; NmcA AA 105 Trp): -
- Fi AVG (average fitness of replicates) ([7]; NmcA AA 105 Tyr): -0.304
- Significance of average fitness ([7]; NmcA AA 105 Tyr): -
- Fi AVG (average fitness of replicates) ([7]; NmcA AA 105 Val): -0.711
- Significance of average fitness ([7]; NmcA AA 105 Val): -
- WT abs Fi 1 (absolute fitness) ([7]; NmcA WT, replicate 1): 0.462
- WT abs Fi 2 (absolute fitness) ([7]; NmcA WT, replicate 2): 0.578
